Test results taken from paper PMC7948497, “Iron uptake mediated by the plant-derived chelator nicotianamine in the small intestine” (The Journal of Biological Chemistry, 2020).

Target: T1, hPAT1 (SLC36A1) (Homo sapiens, UniProt Q7Z2H8)
T1 construct: full open reading frame amplified from human small intestine RNA, pTNT vector, cRNA injected into Xenopus laevis oocytes; 476 residues, about 53 kDa
Assay: two-electrode voltage clamp of Xenopus oocytes, substrate-induced current; inhibition of NA-Fe(II)-elicited current
Assay type: cell-based
Settings: pH 6.0, -60 mV; 0.5 mM NA-Fe(II) (figure legend; Methods say 1 mM)

T1 sequence (Q7Z2H8 whole entry): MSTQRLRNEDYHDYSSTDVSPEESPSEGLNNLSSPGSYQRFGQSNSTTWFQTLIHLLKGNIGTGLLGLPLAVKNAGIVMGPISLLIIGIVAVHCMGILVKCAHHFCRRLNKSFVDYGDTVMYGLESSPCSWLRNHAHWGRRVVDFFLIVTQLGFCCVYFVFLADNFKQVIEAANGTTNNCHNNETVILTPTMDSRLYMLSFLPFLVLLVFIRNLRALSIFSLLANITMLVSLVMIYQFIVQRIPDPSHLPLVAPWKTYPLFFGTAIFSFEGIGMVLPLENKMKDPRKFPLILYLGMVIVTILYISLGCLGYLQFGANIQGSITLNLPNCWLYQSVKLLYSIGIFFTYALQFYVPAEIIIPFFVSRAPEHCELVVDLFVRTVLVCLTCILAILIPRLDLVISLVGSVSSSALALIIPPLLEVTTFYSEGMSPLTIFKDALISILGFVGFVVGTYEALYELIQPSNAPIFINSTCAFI

% of original current remaining at 5 mM: 30.1%
Compound: N[C@@H](Cc1c[nH]c2ccc(O)cc12)C(=O)O [5-hydroxytryptophan]
